In this assay the test system is P388 leukemia ip, CD2F1 mice, survival T/C. As to the kind of experiment: NCI In Vivo Anticancer Drug Screen. Data for tumor model P388 Leukemia (intraperitoneal) in CD2F1 (CDF1) mice. Conditions: endpoint: median survival time, higher = longer survival. The essentials:
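Mice carrying the transplanted tumor received test compound or vehicle. Survival was recorded in each group, and the value is the treated-group measurement divided by that of the vehicle-treated control group.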

The mark [1] stands for this setting: dose: 100.0 mg/kg/injection, schedule: Q01DX009 (ip), vehicle: saline with Tween-80.
The mark [2] stands for this setting: dose: 200.0 mg/kg/injection, schedule: Q01DX009 (ip), vehicle: saline with Tween-80.
[3] abbreviates: dose: 60.0 mg/kg/injection, schedule: Q01DX005 (ip), vehicle: saline with Tween-80.
The mark [4] stands for this setting: dose: 120.0 mg/kg/injection, schedule: Q01DX005 (ip), vehicle: saline with Tween-80.
Where [5] appears, read: dose: 240.0 mg/kg/injection, schedule: Q01DX005 (ip), vehicle: saline with Tween-80.
The mark [6] stands for this setting: dose: 50.0 mg/kg/injection, schedule: Q01DX005 (ip), vehicle: saline with Tween-80.
Setting [7] is: dose: 100.0 mg/kg/injection, schedule: Q01DX005 (ip), vehicle: saline with Tween-80.
Setting [8] is: dose: 200.0 mg/kg/injection, schedule: Q01DX005 (ip), vehicle: saline with Tween-80.
Where [9] appears, read: dose: 50.0 mg/kg/injection, schedule: Q01DX005 (ip), vehicle: Klucel (hydroxypropylcellulose) (HPC).
Where [10] appears, read: dose: 100.0 mg/kg/injection, schedule: Q01DX005 (ip), vehicle: Klucel (hydroxypropylcellulose) (HPC).
The mark [11] stands for this setting: dose: 200.0 mg/kg/injection, schedule: Q01DX005 (ip), vehicle: Klucel (hydroxypropylcellulose) (HPC).

“And” between values parts separate entries of the source, which are not always exact repeats. Equal entries are not always repeated. Toxic doses and inconclusive results are not listed.

Take `CC(C)c1cc(C(C)C)c(S(=O)(=O)N/N=C2\C=CCC(C)(C)C2)c(C(C)C)c1`: the T/C was 87 % of control (dose: 50.0 mg/kg/injection, schedule: Q01DX009 (ip), vehicle: DMSO); 89 % of control (dose: 100.0 mg/kg/injection, schedule: Q01DX009 (ip), vehicle: DMSO); 97 % of control (dose: 200.0 mg/kg/injection, schedule: Q01DX009 (ip), vehicle: DMSO).

Turning to `O=C(C/C(=N\C(=S)Nc1cc(C(F)(F)F)ccc1Cl)NO)N1CCCC1`, the T/C reads like this: (dose: 25.0 mg/kg/injection, schedule: Q01DX009 (ip), vehicle: saline with Tween-80) 101 % of control and 116 % of control; (dose: 50.0 mg/kg/injection, schedule: Q01DX009 (ip), vehicle: saline with Tween-80) 105 % of control and 112 % of control; under setting [1], 117 % of control; under setting [2], 117 % of control.

As for `C/C=C\C#C/C=C1/C=CC(=O)O1`, the T/C (dose: 12.5 mg/kg/injection, schedule: Q01DX009 (ip), vehicle: Klucel (hydroxypropylcellulose) (HPC)) is 105 % of control; the T/C (dose: 25.0 mg/kg/injection, schedule: Q01DX009 (ip), vehicle: Klucel (hydroxypropylcellulose) (HPC)) is 105 % of control; the T/C (dose: 50.0 mg/kg/injection, schedule: Q01DX009 (ip), vehicle: Klucel (hydroxypropylcellulose) (HPC)) was 108 % of control; the T/C (dose: 100.0 mg/kg/injection, schedule: Q01DX009 (ip), vehicle: Klucel (hydroxypropylcellulose) (HPC)) was 108 % of control.

As for `COc1ccc(-n2cccc2/C=N\O)cc1OC`, the T/C is 93 % of control under setting [3], 94 % of control under setting [4] and 93 % of control under setting [5].

Consider `COc1ccc2c(c1)CCC(c1nc3cccc([N+](=O)[O-])c3[nH]c1=O)=C2O`, for which the T/C (dose: 7.5 mg/kg/injection, schedule: Q01DX005 (ip), vehicle: Klucel + Tween-80) was 91 % of control; the T/C (dose: 15.0 mg/kg/injection, schedule: Q01DX005 (ip), vehicle: Klucel + Tween-80) is 94 % of control; the T/C (dose: 30.0 mg/kg/injection, schedule: Q01DX005 (ip), vehicle: Klucel + Tween-80) was 92 % of control.

As for `C=C1C[C@]23C[C@@]1(O)CC[C@H]2[C@]12C=C[C@H](O1)C(C(=O)OCC)=C2[C@@H]3O`, the T/C (dose: 60.0 mg/kg/injection, schedule: Q01DX005 (ip), vehicle: Klucel (hydroxypropylcellulose) (HPC)) was 108 % of control; the T/C (dose: 120.0 mg/kg/injection, schedule: Q01DX005 (ip), vehicle: Klucel (hydroxypropylcellulose) (HPC)) was 115 % of control; the T/C (dose: 240.0 mg/kg/injection, schedule: Q01DX005 (ip), vehicle: Klucel (hydroxypropylcellulose) (HPC)) was 120 % of control.

Take `CN1CCN(C(=O)c2cccc3cccc(C(=O)O)c23)CC1`: the T/C is, setting by setting: (dose: 60.0 mg/kg/injection, schedule: Q01DX005 (ip), vehicle: water) 103 % of control; (dose: 120.0 mg/kg/injection, schedule: Q01DX005 (ip), vehicle: water) 93 % of control; (dose: 240.0 mg/kg/injection, schedule: Q01DX005 (ip), vehicle: water) 100 % of control.

As to `CN1C2C=CC(=O)C1C1C(=O)N(c3ccccc3)C(=O)C12` (configuration not stated), the T/C by setting is: (dose: 17.5 mg/kg/injection, schedule: Q01DX005 (ip), vehicle: Klucel (hydroxypropylcellulose) (HPC)) 109 % of control and 121 % of control; (dose: 35.0 mg/kg/injection, schedule: Q01DX005 (ip), vehicle: Klucel (hydroxypropylcellulose) (HPC)) 113 % of control and 118 % of control; (dose: 70.0 mg/kg/injection, schedule: Q01DX005 (ip), vehicle: Klucel (hydroxypropylcellulose) (HPC)) 121 % of control.

As for `O=S(=O)(OC1=C/[C@H](S(=O)(=O)c2ccccc2)/C=C\[C@H](S(=O)(=O)c2ccccc2)/C=C\1)c1ccccc1`, the T/C is 97 % of control under setting [3], 93 % of control under setting [4] and 91 % of control under setting [5].

`O=C(/C=C/c1c(-c2ccccc2)[nH]c2ccccc12)c1ccc([N+](=O)[O-])cc1`: the T/C reads like this: under setting [3], 97 % of control; under setting [4], 90 % of control; under setting [5], 87 % of control.

For `CNC(=O)Nc1ccc(/C(C)=N/NC(N)=S)cc1`, the T/C under setting [3] is 96 % of control and the T/C under setting [4] is 89 % of control.

For `[N-]=[N+]=Nc1ccnc2cc(C(F)(F)F)ccc12`, the T/C under setting [3] was 103 % of control, the T/C under setting [4] is 100 % of control and the T/C under setting [5] is 96 % of control.

On to `COC(=O)C/C(C(=O)OC)=C1\CCC2=C1N1CCCC1C2(CC(=O)OC)C(=O)OC` (configuration not stated), for which the T/C (dose: 12.5 mg/kg/injection, schedule: Q01DX001 (ip), vehicle: Klucel (hydroxypropylcellulose) (HPC)) is 100 % of control; the T/C (dose: 25.0 mg/kg/injection, schedule: Q01DX001 (ip), vehicle: Klucel (hydroxypropylcellulose) (HPC)) was 99 % of control; the T/C (dose: 50.0 mg/kg/injection, schedule: Q01DX001 (ip), vehicle: Klucel (hydroxypropylcellulose) (HPC)) was 99 % of control.

On to `O=C(Cc1n[nH]c(=S)nc1CC(=O)c1cccnc1)c1cccnc1`, for which the T/C reads like this: under setting [3], 100 % of control; under setting [4], 96 % of control.

For the compound `CCN(CCO)CCNc1ccc(C)c2sc3cc(OC)ccc3c(=O)c12`, the T/C is 102 % of control and 103 % of control and 107 % of control under setting [6]; 106 % of control and 112 % of control and 117 % of control under setting [7]; 103 % of control and 119 % of control under setting [8]; 115 % of control (dose: 400.0 mg/kg/injection, schedule: Q01DX005 (ip), vehicle: saline with Tween-80).

Regarding `C#Cc1cccc(N=Cc2cc(Cl)cc(Br)c2O)c1`, the T/C under setting [6] is 105 % of control, the T/C under setting [7] was 102 % of control and the T/C under setting [8] was 107 % of control.

On to `COc1cc(C2c3c(oc4ccccc4c3=O)Oc3oc4ccccc4c(=O)c32)cc(OC)c1O`, for which the T/C is 92 % of control (dose: 15.0 mg/kg/injection, schedule: Q01DX005 (ip), vehicle: saline with Tween-80); 96 % of control (dose: 30.0 mg/kg/injection, schedule: Q01DX005 (ip), vehicle: saline with Tween-80); 92 % of control under setting [3]; 95 % of control under setting [4]; 98 % of control under setting [5].

With `CCCNc1nc2c(c(=O)n1-c1ccccc1)C=C(C(=O)OC)CCN2S(=O)(=O)c1ccc(C)cc1`, the T/C reads like this: under setting [3], 108 % of control; under setting [4], 101 % of control; under setting [5], 105 % of control.

For `O=C(Nc1ccccc1)c1c(O)[nH]c(=S)[nH]c1=O`, the T/C reads like this: (dose: 3.13 mg/kg/injection, schedule: Q01DX005 (ip), vehicle: saline with Tween-80) 110 % of control; (dose: 6.25 mg/kg/injection, schedule: Q01DX005 (ip), vehicle: saline with Tween-80) 116 % of control; (dose: 12.5 mg/kg/injection, schedule: Q01DX005 (ip), vehicle: saline with Tween-80) 120 % of control; under setting [6], 162 % of control and 201 % of control; (dose: 75.0 mg/kg/injection, schedule: Q01DX009 (ip), vehicle: saline with Tween-80) 210 % of control and 237 % of control and 240 % of control; (dose: 175.0 mg/kg/injection, schedule: Q01DX009 (ip), vehicle: saline with Tween-80) 283 % of control.

As for `CC1(C)C/C(=C\c2cc(O)ccc2[N+](=O)[O-])C(=O)c2ccccc21`, the T/C runs as follows: under setting [1], 86 % of control; under setting [2], 95 % of control; (dose: 400.0 mg/kg/injection, schedule: Q01DX009 (ip), vehicle: saline with Tween-80) 90 % of control.

Regarding `CC1CC(=O)c2c(O)ccc(Cl)c21` (configuration not stated), the T/C is, setting by setting: under setting [9], 106 % of control; under setting [10], 104 % of control; under setting [11], 100 % of control.

In the case of `CC(C)=CC(O)C/C(C)=C/CC/C(C)=C/CCC1(C)C(CCCO)/C(=C(/C)C=O)CCC1(C)O` (configuration not stated), the T/C is 106 % of control (dose: 25.0 mg/kg/injection, schedule: Q01DX005 (ip), vehicle: Klucel (hydroxypropylcellulose) (HPC)); 106 % of control under setting [9]; 119 % of control under setting [10]; 116 % of control under setting [11].

With `CC(=O)NS(=O)(=O)c1ccc(N=Nc2c(C)nn(C(=O)c3cccnc3)c2-c2ccccc2)cc1`, the T/C is, setting by setting: under setting [6], 87 % of control; under setting [7], 89 % of control.

With `N#CCCCOCCOCCOCC(O)C(O)COCCOCCOCCCC#N` (configuration not stated), the T/C (dose: 25.0 mg/kg/injection, schedule: Q01DX005 (ip), vehicle: suspension in saline) was 95 % of control; the T/C (dose: 50.0 mg/kg/injection, schedule: Q01DX005 (ip), vehicle: suspension in saline) was 99 % of control; the T/C (dose: 100.0 mg/kg/injection, schedule: Q01DX005 (ip), vehicle: suspension in saline) was 96 % of control; the T/C (dose: 200.0 mg/kg/injection, schedule: Q01DX005 (ip), vehicle: suspension in saline) is 98 % of control.

For the compound `Cc1cc(NS(=O)(=O)c2ccc(N=c3c4ccccc4n(Cc4ccccc4)c4ccccc34)cc2)no1`, the T/C was 98 % of control under setting [6], 97 % of control under setting [7] and 88 % of control under setting [8].
